In BindingDB's records for doi:10.1021/jm025595i (Enanta Pharmaceuticals, 2003) one finds IC50 data, which are given here for ten molecules.

The structures appear in SMILES notation. Bounds are passed on as bounds.

One experiment is described as follows: Compound was evaluated for its inhibitory activity in a calcineurin inhibition assay.
A word on the IC50: it is the midpoint of a concentration-inhibition curve. Turning to `CCOC(=O)/C=C/C[C@@H](C)[C@@H](O)[C@H]1C(=O)N[C@@H](CC)C(=O)N(C)CC(=O)N(C)[C@@H](CC(C)C)C(=O)N[C@@H](C(C)C)C(=O)N(C)[C@@H](CC(C)C)C(=O)N[C@@H](C)C(=O)N[C@H](C)C(=O)N(C)[C@@H](CC(C)C)C(=O)N(C)[C@@H](CC(C)C)C(=O)N(C)[C@@H](C(C)C)C(=O)N1C` [6-(5-Ethyl-11,17,26,29-tetraisobutyl-14,32-diisopropyl-1,7,10,16,20,23,25,28,31-nonamethyl-3,6,9,12,15,18,21,24,27,30,33-undecaoxo-1,4,7,10,13,16,19,22,25,28,31undecaaza-cyclotritriacont-2-yl)-6-hydroxy-5-methyl-hex-2-enoic acid ethyl ester], the IC50 worked out at 0.363 µM.

Turning to `CC[C@@H]1NC(=O)[C@H]([C@H](O)[C@H](C)C/C=C/C(=O)OCCF)N(C)C(=O)[C@H](C(C)C)N(C)C(=O)[C@H](CC(C)C)N(C)C(=O)[C@H](CC(C)C)N(C)C(=O)[C@@H](C)NC(=O)[C@H](C)NC(=O)[C@H](CC(C)C)N(C)C(=O)[C@H](C(C)C)NC(=O)[C@H](CC(C)C)N(C)C(=O)CN(C)C1=O` [6-(5-Ethyl-11,17,26,29-tetraisobutyl-14,32-diisopropyl-1,7,10,16,20,23,25,28,31-nonamethyl-3,6,9,12,15,18,21,24,27,30,33-undecaoxo-1,4,7,10,13,16,19,22,25,28,31undecaaza-cyclotritriacont-2-yl)-6-hydroxy-5-methyl-hex-2-enoic acid 2-fluoro-ethyl ester], the IC50 turned out to be 0.636 µM.

As for `CCOC(=O)CCC[C@@H](C)[C@@H](O)[C@H]1C(=O)N[C@@H](CC)C(=O)N(C)CC(=O)N(C)[C@@H](CC(C)C)C(=O)N[C@@H](C(C)C)C(=O)N(C)[C@@H](CC(C)C)C(=O)N[C@@H](C)C(=O)N[C@H](C)C(=O)N(C)[C@@H](CC(C)C)C(=O)N(C)[C@@H](CC(C)C)C(=O)N(C)[C@@H](C(C)C)C(=O)N1C` [6-(5-Ethyl-11,17,26,29-tetraisobutyl-14,32-diisopropyl-1,7,10,16,20,23,25,28,31-nonamethyl-3,6,9,12,15,18,21,24,27,30,33-undecaoxo-1,4,7,10,13,16,19,22,25,28,31undecaaza-cyclotritriacont-2-yl)-6-hydroxy-5-methyl-hexanoic acid ethyl ester], the half-maximal inhibitory concentration (IC50) came out at 0.84 µM. Still for that read-out and setting: to `CC[C@@H]1NC(=O)[C@H]([C@H](O)[C@H](C)C/C=C/C(=O)O)N(C)C(=O)[C@H](C(C)C)N(C)C(=O)[C@H](CC(C)C)N(C)C(=O)[C@H](CC(C)C)N(C)C(=O)[C@@H](C)NC(=O)[C@H](C)NC(=O)[C@H](CC(C)C)N(C)C(=O)[C@H](C(C)C)NC(=O)[C@H](CC(C)C)N(C)C(=O)CN(C)C1=O` [6-(5-Ethyl-11,17,26,29-tetraisobutyl-14,32-diisopropyl-1,7,10,16,20,23,25,28,31-nonamethyl-3,6,9,12,15,18,21,24,27,30,33-undecaoxo-1,4,7,10,13,16,19,22,25,28,31undecaaza-cyclotritriacont-2-yl)-6-hydroxy-5-methyl-hex-2-enoic acid] belongs above 5 µM. On the same count and under the same terms, to `CC[C@@H]1NC(=O)[C@H]([C@H](O)[C@H](C)CCCC(=O)OC)N(C)C(=O)[C@H](C(C)C)N(C)C(=O)[C@H](CC(C)C)N(C)C(=O)[C@H](CC(C)C)N(C)C(=O)[C@@H](C)NC(=O)[C@H](C)NC(=O)[C@H](CC(C)C)N(C)C(=O)[C@H](C(C)C)NC(=O)[C@H](CC(C)C)N(C)C(=O)CN(C)C1=O` [6-(5-Ethyl-11,17,26,29-tetraisobutyl-14,32-diisopropyl-1,7,10,16,20,23,25,28,31-nonamethyl-3,6,9,12,15,18,21,24,27,30,33-undecaoxo-1,4,7,10,13,16,19,22,25,28,31undecaaza-cyclotritriacont-2-yl)-6-hydroxy-5-methyl-hexanoic acid methyl ester] belongs 0.89 µM. On the same count and under the same terms, to `CC[C@@H]1NC(=O)[C@H]([C@H](O)[C@H](C)CCCC(=O)OCSC)N(C)C(=O)[C@H](C(C)C)N(C)C(=O)[C@H](CC(C)C)N(C)C(=O)[C@H](CC(C)C)N(C)C(=O)[C@@H](C)NC(=O)[C@H](C)NC(=O)[C@H](CC(C)C)N(C)C(=O)[C@H](C(C)C)NC(=O)[C@H](CC(C)C)N(C)C(=O)CN(C)C1=O` [6-(5-Ethyl-11,17,26,29-tetraisobutyl-14,32-diisopropyl-1,7,10,16,20,23,25,28,31-nonamethyl-3,6,9,12,15,18,21,24,27,30,33-undecaoxo-1,4,7,10,13,16,19,22,25,28,31undecaaza-cyclotritriacont-2-yl)-6-hydroxy-5-methyl-hexanoic acid methylsulfanylmethylester] belongs above 5 µM. Consider `CC[C@@H]1NC(=O)[C@H]([C@H](O)[C@H](C)CCCC(=O)OCCF)N(C)C(=O)[C@H](C(C)C)N(C)C(=O)[C@H](CC(C)C)N(C)C(=O)[C@H](CC(C)C)N(C)C(=O)[C@@H](C)NC(=O)[C@H](C)NC(=O)[C@H](CC(C)C)N(C)C(=O)[C@H](C(C)C)NC(=O)[C@H](CC(C)C)N(C)C(=O)CN(C)C1=O` [6-(5-Ethyl-11,17,26,29-tetraisobutyl-14,32-diisopropyl-1,7,10,16,20,23,25,28,31-nonamethyl-3,6,9,12,15,18,21,24,27,30,33-undecaoxo-1,4,7,10,13,16,19,22,25,28,31undecaaza-cyclotritriacont-2-yl)-6-hydroxy-5-methyl-hexanoic acid 2-fluoro-ethyl ester], for which the IC50 was found to be 1.54 µM. On the same count and under the same terms, then `CC[C@@H]1NC(=O)[C@H]([C@H](O)[C@H](C)C/C=C/C(=O)OC)N(C)C(=O)[C@H](C(C)C)N(C)C(=O)[C@H](CC(C)C)N(C)C(=O)[C@H](CC(C)C)N(C)C(=O)[C@@H](C)NC(=O)[C@H](C)NC(=O)[C@H](CC(C)C)N(C)C(=O)[C@H](C(C)C)NC(=O)[C@H](CC(C)C)N(C)C(=O)CN(C)C1=O` [6-(5-Ethyl-11,17,26,29-tetraisobutyl-14,32-diisopropyl-1,7,10,16,20,23,25,28,31-nonamethyl-3,6,9,12,15,18,21,24,27,30,33-undecaoxo-1,4,7,10,13,16,19,22,25,28,31undecaaza-cyclotritriacont-2-yl)-6-hydroxy-5-methyl-hex-2-enoic acid methyl ester], with 0.581 µM.

The next experiment is described as follows: Compound was evaluated for its inhibitory activity in a calcineurin inhibition assay (MTM).
`CC[C@@H]1NC(=O)[C@H]([C@H](O)[C@H](C)C/C=C/C(=O)OCSC)N(C)C(=O)[C@H](C(C)C)N(C)C(=O)[C@H](CC(C)C)N(C)C(=O)[C@H](CC(C)C)N(C)C(=O)[C@@H](C)NC(=O)[C@H](C)NC(=O)[C@H](CC(C)C)N(C)C(=O)[C@H](C(C)C)NC(=O)[C@H](CC(C)C)N(C)C(=O)CN(C)C1=O` [Cyclosporin A analogue]: the IC50 was 2.15 µM.

A short description of the next experiment: Compound was evaluated for its inhibitory activity in a calcineurin inhibition assay (MOM).
For the molecule `CC[C@@H]1NC(=O)[C@H]([C@H](O)[C@H](C)C/C=C/C(=O)OCOC)N(C)C(=O)[C@H](C(C)C)N(C)C(=O)[C@H](CC(C)C)N(C)C(=O)[C@H](CC(C)C)N(C)C(=O)[C@@H](C)NC(=O)[C@H](C)NC(=O)[C@H](CC(C)C)N(C)C(=O)[C@H](C(C)C)NC(=O)[C@H](CC(C)C)N(C)C(=O)CN(C)C1=O` [6-(5-Ethyl-11,17,26,29-tetraisobutyl-14,32-diisopropyl-1,7,10,16,20,23,25,28,31-nonamethyl-3,6,9,12,15,18,21,24,27,30,33-undecaoxo-1,4,7,10,13,16,19,22,25,28,31undecaaza-cyclotritriacont-2-yl)-6-hydroxy-5-methyl-hex-2-enoic acid methoxymethyl ester], the IC50 was found to be 1.92 µM.

Another experiment can be described thus: Compound was evaluated for its inhibitory activity in a calcineurin inhibition assay (morn).
Regarding `CC[C@@H]1NC(=O)[C@H]([C@H](O)[C@H](C)C/C=C/C(=O)OCOC)N(C)C(=O)[C@H](C(C)C)N(C)C(=O)[C@H](CC(C)C)N(C)C(=O)[C@H](CC(C)C)N(C)C(=O)[C@@H](C)NC(=O)[C@H](C)NC(=O)[C@H](CC(C)C)N(C)C(=O)[C@H](C(C)C)NC(=O)[C@H](CC(C)C)N(C)C(=O)CN(C)C1=O` [6-(5-Ethyl-11,17,26,29-tetraisobutyl-14,32-diisopropyl-1,7,10,16,20,23,25,28,31-nonamethyl-3,6,9,12,15,18,21,24,27,30,33-undecaoxo-1,4,7,10,13,16,19,22,25,28,31undecaaza-cyclotritriacont-2-yl)-6-hydroxy-5-methyl-hex-2-enoic acid methoxymethyl ester], the IC50 was determined as 0.742 µM. As for `CC[C@@H]1NC(=O)[C@H]([C@H](O)[C@H](C)C/C=C/C(=O)OCSC)N(C)C(=O)[C@H](C(C)C)N(C)C(=O)[C@H](CC(C)C)N(C)C(=O)[C@H](CC(C)C)N(C)C(=O)[C@@H](C)NC(=O)[C@H](C)NC(=O)[C@H](CC(C)C)N(C)C(=O)[C@H](C(C)C)NC(=O)[C@H](CC(C)C)N(C)C(=O)CN(C)C1=O` [Cyclosporin A analogue], the IC50 stood at 0.348 µM.
